Measured values from patent US20050137215A1, “[C]-fused bicyclic proline derivatives and their use for treating arthritic conditions” (priority 2003, published 2005).
Counter-ions that a name gives are not always drawn.

Legend:
[1] = system: Monosodium Iodoacetate-Induced Osteoarthritis in Rat Model of Joint Cartilage Damage; test: Monosodium iodoacetate-induced osteoarthritis in rat (MIA Rat), loss of hind limb joint function; format: in vivo; conditions: male Wistar rats, MIA 1 mg/joint, 10 mg/kg/day subcutaneously via osmotic pump
From the text: Monosodium Iodoacetate-Induced Osteoarthritis in Rat Model of Joint Cartilage Damage (“MIA Rat”):
One end result of the induction of osteoarthritis in this model, as determined by histologic analysis, is the development of an osteoarthritic condition within the affected joint, as characterized by the loss of Toluidine blue staining and formation of osteophytes. Associated with the histologic changes is a concentration-dependent degradation of joint cartilage, as evidenced by affects on hind-paw weight distribution of the limb containing the affected joint, the presence of increased amounts of proteoglycan or hydroxyproline in the joint upon biochemical analysis, or histopathological analysis of the osteoarthritic lesions.
The invention compounds typically are not effective for relieving joint pain when administered in an acute model, such as the instant MIA Rat model, which has a duration of just 14 or 28 days.
Generally, In the MIA Rat model on Day 0, the hind-paw weight differential between the right arthritic joint and the left healthy joint of male Wistar rats (150 g) are determined with an incapacitance tester, model 2KG (Linton Instrumentation, Norfolk, United Kingdom). The incapacitance tester has a chamber on top with an outwardly sloping front wall that supports a rat's front limbs, and two weight sensing pads, one for each hind paw, that facilitates this determination. Then the rats are anesthetized with isofluorine, and the right, hind leg knee joint is injected with 1.0 mg of mono-iodoacetate (“MIA”) through the infrapatellar ligament. Injection of MIA into the joint results in the inhibition of glycolysis and eventual death of surrounding chondrocytes. The rats are further administered either an invention compound or vehicle (in the instant case, water) daily for 14 days or 28 days.
The invention compound is typically administered at a dose of 30 mg of per kilogram of rat per day (30 mg/kg/day), but may be administered at other doses such as, for example, 10 mg/kg/day, 60 mg/kg/day, 90-mg/kg/day, or 100 mg/kg/day according to the requirements of the invention compound being studied. It is well within the level of ordinary skill in the pharmaceutical arts to determine a proper dosage of an invention compound in this model.
Administration of an invention compound in this model is optionally by oral administration or by intravenous administration via an osmotic pump. After 7 and 14 days for a two week study, or 7, 14, and 28 days for a four week study, the hind-paw weight distribution is again determined. Typically, the animals administered vehicle alone place greater weight on their unaffected left hind paw than on their right hind paw, while animals administered an invention compound show a more normal (i.e., more like a healthy animal) weight distribution between their hind paws. This change in weight distribution was proportional to the degree of joint cartilage damage. Percent inhibition of a change in hind paw joint function is calculated as the percent change in hind-paw weight distribution for treated animals versus control animals. For example, for a two week study, [formula] wherein: ΔWC is the hind-paw weight differential between the healthy left limb and the arthritic limb of the control animal administered vehicle alone, as measured on Day 14; and • ΔWG is the hind-paw weight differential between the healthy left limb and the arthritic limb of the animal administered an invention compound as measured on Day 14.
Administration via osmotic pump is preferable for screening compounds. In a particular experiment, monosodium iodoacetate (“MIA”) (1 mg/joint) was injected through the infrapatellar ligament of the right knee of anesthetized male, Wistar rats. The contralateral control knee was injected with 50 μL of physiologic saline. […]

alpha-2-delta receptor 1 = alpha-2-delta receptor 1 (Sus scrofa, UniProt A0A287BIN3); test: [3H]Gabapentin A2DR1 binding assay; design: species or system pig; conditions: Biological Method 4; read-out: A2DR1 IC50, displacement of [3H]-gabapentin
From the text: (§1) [^3H]Gabapentin A2DR1 and A2DR2 Binding Assays (“A2DR1” and “A2DR2”, Respectively)
(§2) HEK 293 recombinant cells expressing A2DR1 or A2DR2 protein are harvested and washed in phosphate buffered saline (“PBS”). The cells are centrifuged and resuspended in tris(hydroxymethyl)aminomethane-ethylenediaminetetraacetic acid (“Tris-EDTA” or “TE”) buffer containing Roche Complete Protease Inhibitor Cocktail. The cells are homogenized, centrifuged at 3000×g, and the supernatant centrifuged again at 50,000×g. The resulting pellet is resuspended and homogenized in TE. Following determination of A2DR1 or A2DR2 protein concentration, aliquots are stored at −70° C. until the day of testing (membrane preparation may be used for at least 6 months).
(§3) In one version, the binding assay is set up in a 96-well format using deep-well polypropylene plates. […] Non-specific binding for each plate is determined by the addition of 10 μM of pregabalin instead of test compound in a few of the 96 wells. […] The mats are placed into plastic pouches, scintillation cocktail is added, the pouches are sealed, and radioactivity for each sample is counted.
(§4) Specific binding values for each concentration are transformed and then analyzed by a 4-parameter nonlinear regression equation provided by Prism graphics software by Graph Pad to determine IC50 values by conventional means.
Displacement of [3H]-gabapentin from an alpha-2-delta receptor-1 or an alpha-2-delta receptor-2 by certain invention compounds is evidenced below in Table 2. In Table 2, the displacement was determined according to one of the above Biological Methods 4 or 6, and reported as an IC50 in micromolar concentration of invention compound in the columns labeled “A2DR1 IC50 (μM),” “A2DR2 IC50 […],” and “GABAPAA IC50 (μM),” respectively, for a reference compound, racemic octahydroisoindole-2-carboxylic acid (“OHIII2CA”) and certain invention compounds, which are referenced by Compound Example number in the column labeled “Compound Example No.”.

alpha-2-delta receptor 2 = alpha-2-delta receptor 2 (UniProt A0A8W4FF87); test: [3H]Gabapentin A2DR2 binding assay; design: species or system pig; conditions: Biological Method 4; read-out: A2DR2 IC50, displacement of [3H]-gabapentin
From the text: as §1, §2, §3
Specific binding values for each concentration are transformed and then analyzed by a 4-parameter nonlinear regression equation provided by Prism graphics software by Graph Pad to determine IC50 values by conventional means. […]

[2] = molecular target: alpha-2-delta receptors, membrane from pig cortex (Sus scrofa, UniProt O77773); test: [3H]Gabapentin A2DR binding assay (GABAPAA / GABAP); conditions: Biological Method 6, pig cortex membrane; read-out: GABAPAA IC50, displacement of [3H]-gabapentin
Sequence of alpha-2-delta receptors, membrane from pig cortex (O77773 25-1091): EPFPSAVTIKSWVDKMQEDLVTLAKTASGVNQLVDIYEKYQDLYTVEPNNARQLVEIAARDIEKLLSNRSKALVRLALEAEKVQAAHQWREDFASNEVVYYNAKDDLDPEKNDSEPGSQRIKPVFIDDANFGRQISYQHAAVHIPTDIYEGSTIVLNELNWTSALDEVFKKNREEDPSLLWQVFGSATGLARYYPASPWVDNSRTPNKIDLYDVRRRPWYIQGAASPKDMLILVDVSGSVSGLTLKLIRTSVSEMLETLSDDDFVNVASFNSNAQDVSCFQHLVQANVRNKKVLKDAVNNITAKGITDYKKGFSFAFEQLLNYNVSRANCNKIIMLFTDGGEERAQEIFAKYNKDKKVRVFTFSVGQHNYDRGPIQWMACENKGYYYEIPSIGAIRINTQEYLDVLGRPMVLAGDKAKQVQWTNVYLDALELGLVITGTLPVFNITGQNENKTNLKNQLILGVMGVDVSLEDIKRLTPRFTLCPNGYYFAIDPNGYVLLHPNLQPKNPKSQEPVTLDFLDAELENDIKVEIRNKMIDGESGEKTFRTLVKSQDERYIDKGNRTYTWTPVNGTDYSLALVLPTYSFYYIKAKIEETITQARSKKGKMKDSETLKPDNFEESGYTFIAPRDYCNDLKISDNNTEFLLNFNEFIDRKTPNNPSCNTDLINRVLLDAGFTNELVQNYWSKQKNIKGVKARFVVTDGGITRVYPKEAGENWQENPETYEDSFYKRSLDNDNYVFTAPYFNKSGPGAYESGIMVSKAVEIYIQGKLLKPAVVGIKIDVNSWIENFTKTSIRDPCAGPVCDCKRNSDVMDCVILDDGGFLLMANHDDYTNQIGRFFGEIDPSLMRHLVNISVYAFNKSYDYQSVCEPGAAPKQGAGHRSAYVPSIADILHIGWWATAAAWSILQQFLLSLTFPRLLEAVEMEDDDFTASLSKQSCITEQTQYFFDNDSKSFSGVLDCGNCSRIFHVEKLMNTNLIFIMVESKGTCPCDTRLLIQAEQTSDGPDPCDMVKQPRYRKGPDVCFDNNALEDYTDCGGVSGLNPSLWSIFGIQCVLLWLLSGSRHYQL
Protocol: In one version, the binding assay is set up in a 96-well format using deep-well polypropylene plates. In a total volume of 500 μL, the following additions are made: 250 μL buffer [10 mM N-2-hydroxyethylpiperazine-N′-2-ethanesulfonic acid (“HEPES”), pH 7.4], 25 μL [3H]gabapentin (10 nM final concentration), 200 μL thawed tissue membrane preparation from Step (1) (˜40 μg protein), and 25 μL of test compound at 7 test dilutions (for example, 0.001, 0.01, 0.03, 0.1, 0.3, 1.0, and 10 μM concentrations). Non-specific binding for each plate is determined by the addition of 10 μM of pregabalin instead of test compound in a few of the 96 wells. Following incubation for 45 minutes at 21° C., the contents of the wells are filtered under vacuum onto glass filter/B (“GF/B”) filter mats and then washed 4×1 mL with chilled 50 mM tris(hydroxymethyl)aminomethane (“Tris”) HCl, pH 6.9. The mats are placed into plastic pouches, scintillation cocktail is added, the pouches are sealed, and radioactivity for each sample is counted.
as §4
[^3H]Gabapentin A2DR Binding Assay (“GABAPAA” or “GABAP”) […]

leucine transport system = leucine transport system (Cricetulus griseus, UniProt G3GRU9); test: Leucine transport system binding assay (LTSBA), [3H]leucine uptake in CHO K1 cells; format: cell-based; conditions: conclusion from Table 3
Sequence of leucine transport system (G3GRU9 entry or part of it): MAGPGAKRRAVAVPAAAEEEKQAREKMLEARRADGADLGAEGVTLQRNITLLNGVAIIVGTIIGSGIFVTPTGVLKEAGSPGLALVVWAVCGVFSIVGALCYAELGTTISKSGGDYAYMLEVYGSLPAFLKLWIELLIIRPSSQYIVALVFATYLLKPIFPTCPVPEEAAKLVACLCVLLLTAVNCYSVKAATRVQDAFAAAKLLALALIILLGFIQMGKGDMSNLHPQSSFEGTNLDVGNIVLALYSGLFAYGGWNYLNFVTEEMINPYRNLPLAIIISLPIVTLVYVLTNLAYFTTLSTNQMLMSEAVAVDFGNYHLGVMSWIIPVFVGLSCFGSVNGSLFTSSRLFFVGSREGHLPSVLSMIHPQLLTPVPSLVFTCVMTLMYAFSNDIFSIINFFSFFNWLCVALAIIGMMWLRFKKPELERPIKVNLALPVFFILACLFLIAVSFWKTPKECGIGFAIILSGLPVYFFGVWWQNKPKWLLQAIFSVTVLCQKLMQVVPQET
Sequence of leucine transport system (A0A9J7CH39 entry or part of it, further chain): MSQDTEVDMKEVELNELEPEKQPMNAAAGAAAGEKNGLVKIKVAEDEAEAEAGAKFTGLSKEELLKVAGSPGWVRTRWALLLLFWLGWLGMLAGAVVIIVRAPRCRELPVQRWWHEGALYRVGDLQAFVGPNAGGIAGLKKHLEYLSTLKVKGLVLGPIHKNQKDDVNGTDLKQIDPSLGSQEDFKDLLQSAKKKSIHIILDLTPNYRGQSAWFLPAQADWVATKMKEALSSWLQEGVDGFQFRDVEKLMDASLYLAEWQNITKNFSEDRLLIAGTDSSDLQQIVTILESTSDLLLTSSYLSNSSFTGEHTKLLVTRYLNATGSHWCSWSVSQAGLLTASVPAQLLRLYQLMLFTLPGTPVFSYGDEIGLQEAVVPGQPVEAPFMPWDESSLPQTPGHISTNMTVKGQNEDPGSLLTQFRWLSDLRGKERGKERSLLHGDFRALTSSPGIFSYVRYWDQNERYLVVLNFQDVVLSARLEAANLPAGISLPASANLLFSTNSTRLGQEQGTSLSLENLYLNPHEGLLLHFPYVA
Protocol: Leucine Transport System Binding Assay (“LTSBA”) The sodium-containing buffer for transport assay was phosphate buffered saline (“PBS”) consisting of 137 mM NaCl, 2.7 mM KCl, 10.6 mM Na2HPO4, and 1.5 mM KH2PO4. The sodium-free buffer had equimolar amounts of choline chloride and choline phosphate in place of NaCl and […], respectively. This buffer is referred to as PBC. Prior to use, both PBS and PBC buffers (pH 7.4) were supplemented with 5.6 mM D-glucose, 0.49 mM MgCl2, and 0.9 mM CaCl2 (GMC). For cultured monolayer cells (in general, CHO K1 cells), the cluster tray transport assay was used as described previously (Su et al, J. Neurochem., 1995; 64:2125-2131, and references therein). […] The initial transport rates were determined by measuring uptake of tracer [3H] […] Secondary analysis of the initial velocity kinetic curves were determined by non linear regression analysis, using the equation: log V=log {[Vmax.S/(Km+S)]+P.[S]} where V, S, Vmax, and Km have their conventional meanings, and P represents the first order rate constant describing the nonsaturable uptake. An IC50 was determined as percentage inhibition of saturable leucine uptake. […] They were calculated by subtracting the corresponding substrate uptake rates in the presence of 10 mM excess unlabeled leucine from the total uptake rates. […] The efflux was calculated as percentage of the intracellular labeled substrate at zero time. […]

Structure (SMILES) | melting point | % I @ 10 mg/kg/day (%) (± SEM): inhibition of loss of hind limb joint function in MIA at Day 14 [1] | further results
COC1CC2CNC(C(=O)O)C2CC1OC (centres unmarked) | 235 to 241 °C (dec.) | – | –
O=C(O)C1NCC2C1CCC2(F)F (centres unmarked) | 200 to 205 °C (dec.) | – | –
O=C(O)[C@@H]1NC[C@@H]2[C@H]1[C@H]1CC[C@@H]2O1 (racemic) | 188 to 190 °C | – | –
O=C(O)[C@@]12CCCN1C[C@H]1CCCC[C@H]12 (racemic) (as salt: hydrochloride) | 250 to 255 °C | – | –
CC1(C)N[C@H](C(=O)O)[C@@H]2CCCC[C@H]21 (racemic) [Example B5] | – | 32 | IC50 (alpha-2-delta receptor 1): ≥ 10 µM; IC50 (alpha-2-delta receptor 2): ≥ 10 µM
O=C(O)N1CC2CCCCC2C1 (racemic) [OHII2CA, racemic octahydroisoindole-2-carboxylic acid] | – | – | IC50 [2]: 0.03 µM
CN1CC2CCCCC2C1(C)C(=O)O (centres unmarked) [Example B1] | – | 32 | –
C[C@]1(C(=O)O)NC[C@H]2CCCC[C@H]21 [Example B2] | – | −5 | IC50 (alpha-2-delta receptor 1): ≥ 10 µM; IC50 (alpha-2-delta receptor 2): ≥ 10 µM
CC12CCCCC1CNC2C(=O)O (centres unmarked) [Example B4] | – | 13 | –
O=C(O)[C@@]12CCCN1C[C@H]1CCCC[C@H]12 [Example M1] | – | – | IC50 (alpha-2-delta receptor 1): ≥ 10 µM
CN1C[C@H]2C3CCC(CC3)[C@H]2[C@@H]1C(=O)O [Example R2] | – | −20 | –
O=C(O)C1NCC2C3CCC(CC3)C12 (centres unmarked) [Example R3] | – | 20 | –
Cl.O=C(O)N1CC2CCCCC2C1 (centres unmarked) [OHII2CA HCl, octahydroisoindole-2-carboxylic acid hydrochloride] | – | – | binding to the leucine transport system (in words) (leucine transport system): weakly bind or do not bind
